Values joined by “and” are separate entries in the source; they are usually repeats but may differ in a detail not shown here. Identical values can stand only once.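 Growth conditions: 96-well plates. Treatment: test compound, 48 hours, 5 concentrations. Analysis: linear interpolation between bracketing concentrations; unreached endpoints set to highest concentration. GI50 = concentration required for 50% inhibition of growth. TGI marks complete inhibition of growth.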 Where only a bound is given, the exact number is not on record here.

Some test systems named below: RPMI-8226 leukemia; OVCAR-4 ovarian; A498 renal; RXF 393 renal; HCT-116 colon; KM12 colon; COLO 205 colon; SK-MEL-28 melanoma; SNB-19 CNS; 786-0 renal.
Holding throughout (assay): NCI-60 cell line screen, 48 h

Turning to `CC1(C)CC(=O)C2=C(C1)NC(SSC1=C(C#N)C(c3ccccc3)C3=C(CC(C)(C)CC3=O)N1)=C(C#N)C2c1ccccc1` (stereo not drawn), the GI50 is 46.5 µg/mL with RPMI-8226 leukemia; 23.6 µg/mL with OVCAR-4 ovarian; 30.4 µg/mL with A498 renal; 25.7 µg/mL with RXF 393 renal; 26.3 µg/mL in the test on HCT-116 colon; 26.2 µg/mL with KM12 colon. The GI50 with COLO 205 colon is 29.5 µg/mL; with SK-MEL-28 melanoma it was 27.7 µg/mL; in the test on SNB-19 CNS, 89.2 µg/mL; in the test with 786-0 renal, 28.4 µg/mL. Besides, the TGI worked out at 134 µg/mL in the test with RPMI-8226 leukemia; 44.8 µg/mL in the test on OVCAR-4 ovarian; 59.8 µg/mL in the test with A498 renal; 47 µg/mL with RXF 393 renal; 47 µg/mL in the test on HCT-116 colon; 49.7 µg/mL in the test on KM12 colon. In addition, the TGI in the test on COLO 205 colon was 51.5 µg/mL; in the test on SK-MEL-28 melanoma, 48.6 µg/mL; in the test with SNB-19 CNS, above 150 µg/mL; with 786-0 renal it was 49.5 µg/mL.
For `C=C(c1ccccc1N)[C@@]1(O)C[C@H](/C(=C\C)CO)C[C@@H]1NCc1ccccc1`, the TGI with RPMI-8226 leukemia is 42.5 µM; in the test on OVCAR-4 ovarian, above 100 µM; with A498 renal, above 100 µM; in the test with RXF 393 renal, 49.3 µM; with HCT-116 colon, 28.7 µM; in the test with KM12 colon, 33.7 µM. In addition, the TGI in the test on COLO 205 colon amounted to 33 µM; in the test with SK-MEL-28 melanoma, 33 µM; with SNB-19 CNS it was 79.5 µM; in the test with 786-0 renal it was 46 µM.
For `COc1cc(CCc2cc(NC(=O)c3ccc(N4C[C@@H](C)N[C@@H](C)C4)cc3)n[nH]2)cc(OC)c1`, the GI50 with RPMI-8226 leukemia was 4.82 µM and 4.65 µM; in the test with OVCAR-4 ovarian, > 10 µM and 3.73 µM; with A498 renal it was 0.014 µM and < 0.0107 µM; in the test with HCT-116 colon it was 3.79 µM and 3.49 µM; with KM12 colon, 0.0759 µM and 0.107 µM; in the test on COLO 205 colon it was 3.58 µM and 3.61 µM. For the same molecule, the GI50 with SK-MEL-28 melanoma is > 10 µM and 7.74 µM; with SNB-19 CNS, > 10 µM and 14.9 µM; in the test with 786-0 renal it was > 10 µM and 6.16 µM. Further, the TGI is > 10 µM and 19.6 µM in the test on RPMI-8226 leukemia; > 10 µM and 18.5 µM in the test on OVCAR-4 ovarian; 0.0838 µM and 0.12 µM with A498 renal; 7.97 µM and 9.67 µM in the test with RXF 393 renal; > 10 µM and 13.1 µM in the test with HCT-116 colon; > 10 µM and 11 µM in the test with KM12 colon. The TGI in the test with COLO 205 colon is > 10 µM and 11.5 µM; with SK-MEL-28 melanoma it was > 10 µM and 20.9 µM; in the test with SNB-19 CNS, > 10 µM and 30.8 µM; in the test on 786-0 renal it was > 10 µM and 20.4 µM.
Turning to `Cc1ccc2c(c1)NC(c1ccc(C(=O)O)cc1)c1cccn1-2` (stereo not drawn), the TGI in the test on RPMI-8226 leukemia is above 100 µM; with OVCAR-4 ovarian, 64 µM; in the test with A498 renal it was 64.9 µM; in the test on RXF 393 renal it was 50.2 µM; in the test with HCT-116 colon it was above 100 µM; in the test on KM12 colon, above 100 µM. Besides, the TGI in the test on COLO 205 colon was above 100 µM; in the test with SK-MEL-28 melanoma, above 100 µM; in the test on SNB-19 CNS it was 94.6 µM; in the test on 786-0 renal it was 43.1 µM.
As for `CCCCCCC(=O)C/C(CCC(=O)N(Cc1ccccc1)Cc1ccccc1)=N\Nc1ccc([N+](=O)[O-])cc1[N+](=O)[O-]`, the TGI with RPMI-8226 leukemia, in the test with OVCAR-4 ovarian, in the test with A498 renal, in the test with RXF 393 renal, in the test on HCT-116 colon and in the test with KM12 colon was above 100 µM each time. Further, the TGI in the test with COLO 205 colon, in the test with SK-MEL-28 melanoma, in the test on SNB-19 CNS and in the test with 786-0 renal was above 100 µM in each case.
With `O/N=C1\CCc2cc(-c3nc(C4CCNCC4)[nH]c3-c3ccncc3)ccc21`, the GI50 with RPMI-8226 leukemia, in the test on OVCAR-4 ovarian, with A498 renal, in the test with RXF 393 renal, in the test with HCT-116 colon and in the test on KM12 colon was above 25 µM each time. Moreover, the GI50 with COLO 205 colon is 2.78 µM; in the test on SK-MEL-28 melanoma it was 1.5 µM; in the test on SNB-19 CNS it was above 25 µM; with 786-0 renal it was above 25 µM. Also, the TGI with RPMI-8226 leukemia, in the test with OVCAR-4 ovarian, in the test on A498 renal, in the test on RXF 393 renal, in the test on HCT-116 colon and in the test with KM12 colon was above 25 µM each time. Moreover, the TGI is above 25 µM in the test on COLO 205 colon, above 21.3 µM in the test on SK-MEL-28 melanoma, above 25 µM in the test on SNB-19 CNS and above 25 µM in the test with 786-0 renal.
`Cc1ccc(S(=O)(=O)NC(CCC(=O)Nc2ccc(Cl)cc2)C(=O)Nc2ccc(Cl)cc2)cc1` (stereo not drawn): the GI50 in the test with RPMI-8226 leukemia was 0.826 µM; in the test with OVCAR-4 ovarian, 0.775 µM; in the test with A498 renal it was 0.717 µM; in the test with RXF 393 renal, 1.89 µM; in the test on HCT-116 colon, 0.139 µM; in the test on KM12 colon, 0.112 µM. Also, the GI50 was 0.531 µM in the test with COLO 205 colon, 0.625 µM in the test with SK-MEL-28 melanoma, 0.707 µM with SNB-19 CNS and 0.726 µM in the test on 786-0 renal. The TGI in the test on RPMI-8226 leukemia came out at 7.43 µM; in the test on OVCAR-4 ovarian, 3.46 µM; in the test on A498 renal it was 5.34 µM; with RXF 393 renal, 7.31 µM; with HCT-116 colon, 7.05 µM; in the test with KM12 colon, 6 µM. The TGI with COLO 205 colon is 2.15 µM; in the test on SK-MEL-28 melanoma, 6.48 µM; in the test on SNB-19 CNS, 4.4 µM; with 786-0 renal, 5.69 µM.
In the case of `CC(Cl)(/C=C/Cl)C(Cl)/C=C/C(Cl)(CCl)CBr` (stereo not drawn), the TGI with RPMI-8226 leukemia worked out at 7.31 µM; with OVCAR-4 ovarian, 9.36 µM; in the test on A498 renal, 18.4 µM; in the test with RXF 393 renal, 2.92 µM; in the test on HCT-116 colon, 3.39 µM; in the test on KM12 colon, 20.8 µM. For the same molecule, the TGI amounted to 4.94 µM with COLO 205 colon, 8.27 µM in the test with SK-MEL-28 melanoma, 27.3 µM with SNB-19 CNS and 10.8 µM in the test with 786-0 renal.
Take `CC1(C)N=C(N)N=C(N)N1c1cccc(/C=C/C=C/c2cccc([N+](=O)[O-])c2)c1`: the GI50 in the test with RPMI-8226 leukemia was 1.31 µM; in the test with OVCAR-4 ovarian, 5.54 µM; in the test with A498 renal it was 13 µM; with RXF 393 renal it was 17.4 µM; with HCT-116 colon, 3.16 µM; with KM12 colon, 2.59 µM. For the same molecule, the GI50 was 4.4 µM in the test on COLO 205 colon, 7.1 µM in the test with SK-MEL-28 melanoma, 6.04 µM in the test with SNB-19 CNS and 21.3 µM in the test on 786-0 renal. Also, the TGI was 16.3 µM with RPMI-8226 leukemia; 22.5 µM in the test on OVCAR-4 ovarian; 39.3 µM in the test with A498 renal; above 100 µM in the test with RXF 393 renal; 30.4 µM in the test on HCT-116 colon; 15.5 µM in the test with KM12 colon. Further, the TGI in the test on COLO 205 colon was determined as 19.8 µM; in the test with SK-MEL-28 melanoma, 20.5 µM; in the test with SNB-19 CNS, 22.5 µM; in the test with 786-0 renal, 52.9 µM.
Consider `C[C@H]1[C@H](OC(=O)CCC(=O)O)O[C@@H]2O[C@]3(C)CC[C@H]4[C@H](C)CC[C@@H]1[C@@]24OO3`, for which the GI50 is 0.0948 µM with RPMI-8226 leukemia; 1.28 µM in the test on OVCAR-4 ovarian; 5.93 µM in the test on A498 renal; 0.953 µM with RXF 393 renal; 0.129 µM in the test on HCT-116 colon; 0.168 µM with KM12 colon. In addition, the GI50 with COLO 205 colon is 0.341 µM; in the test with SK-MEL-28 melanoma, 4.27 µM; in the test on SNB-19 CNS it was 1.62 µM; in the test with 786-0 renal, 1.12 µM. Further, the TGI turned out to be 13 µM with RPMI-8226 leukemia; 28.1 µM in the test on OVCAR-4 ovarian; 33.8 µM with A498 renal; 33 µM in the test on RXF 393 renal; 11.4 µM with HCT-116 colon; 12 µM in the test on KM12 colon. The TGI was 1.37 µM in the test on COLO 205 colon, above 100 µM in the test with SK-MEL-28 melanoma, above 100 µM in the test with SNB-19 CNS and 25.8 µM with 786-0 renal.
Consider `O=C1/C(=C\c2ccc(Cl)cc2)CN(C(=S)Nc2ccccc2)C/C1=C\c1ccc(Cl)cc1`, for which the GI50 was 0.136 µM with RPMI-8226 leukemia; 0.343 µM in the test with OVCAR-4 ovarian; 1.66 µM with A498 renal; 0.397 µM in the test with RXF 393 renal; 0.213 µM in the test on HCT-116 colon; 0.261 µM in the test with KM12 colon. For the same molecule, the GI50 in the test with COLO 205 colon is 0.507 µM; in the test on SK-MEL-28 melanoma, 1.79 µM; in the test with SNB-19 CNS it was 0.661 µM; with 786-0 renal it was 0.351 µM. For the same molecule, the TGI in the test on RPMI-8226 leukemia was found to be 0.646 µM; with OVCAR-4 ovarian it was 2.77 µM; in the test on A498 renal it was 3.15 µM; in the test with RXF 393 renal, 1.13 µM; in the test on HCT-116 colon it was 0.438 µM; in the test on KM12 colon, 0.645 µM. In addition, the TGI amounted to 1.84 µM in the test on COLO 205 colon, 3.39 µM in the test with SK-MEL-28 melanoma, 1.95 µM with SNB-19 CNS and 1.23 µM with 786-0 renal.
Regarding `COc1ccc(N(C)c2nc(C)nc3ccccc23)cc1`, the GI50 with RPMI-8226 leukemia, in the test on OVCAR-4 ovarian, with A498 renal, in the test with RXF 393 renal, in the test with HCT-116 colon and in the test with KM12 colon was below 0.01 µM each time. Besides, the GI50 was below 0.01 µM with COLO 205 colon, 19.3 µM with SK-MEL-28 melanoma, below 0.01 µM in the test on SNB-19 CNS and below 0.01 µM with 786-0 renal. For the same molecule, the TGI with RPMI-8226 leukemia was 18 µM; in the test with OVCAR-4 ovarian, above 100 µM; in the test on A498 renal, below 0.01 µM; with RXF 393 renal it was above 100 µM; in the test with HCT-116 colon, above 36 µM; in the test on COLO 205 colon it was below 0.01 µM. Moreover, the TGI with SK-MEL-28 melanoma is above 100 µM; with SNB-19 CNS it was above 100 µM; in the test with 786-0 renal, 55.7 µM.

These data come from PubChem BioAssay (NCI).
